Assay results: paper PMC8071358, “Targeting of the Essential acpP, ftsZ, and rne Genes in Carbapenem-Resistant Acinetobacter baumannii by Antisense PNA Precision Antibacterials” (Biomedicines, 2021)
{(KFF)3K-eg1} = H-(KFF)3K peptide (K lysine, F phenylalanine) with eg1 linker (8-amino-3,6-dioxaoctanoyl), on the PNA N terminus (5' end); {NH2} = C-terminal amide

Legend:
P. aeruginosa (PAO1) = assay: BPP-PNA MIC, broth microdilution; format: cell-based, Pseudomonas aeruginosa; conditions: non-target species; MHB without cation (Oxoid)
Description: (§1) MIC values were determined by broth microdilution according to standard protocols with a few modifications. An overnight bacterial cell culture was diluted to approximately 5 × 10^5 CFU/mL in non-cation-adjusted Muller Hinton Broth (MHB). Then, 180 µL bacterial solutions were dispensed into a low-bind 96-well plate (Thermo-Scientific, Roskilde, Denmark) along with 20 µL of BPP-PNA compound (BPP-PNA was serially diluted 2-fold from 16 to 0.5 µM in a 96-well plate). The plate was incubated in a Tecan Genios plate reader (GMI, Minnesota, Ramsey, USA) at 37 °C for 18 h with linear shaking, OD was measured every 20 min at 595 nm. […] The minimum bactericidal concentration (MBC) values were determined by plating 10 µL samples from the wells with no visible turbidity onto Mueller–Hinton agar plates. The MBC is determined the lowest concentration of BPP-PNA that reduces the viability of the initial bacterial inoculum by ≥99.9% (3-log reduction in CFU/mL). A minimum of two independent experiments (biological replicates) of the assay were conducted, and two technical replicates were used in each experiment for each bacterium, compound, and concentration.

CRAB strain AC46 = assay: BPP-PNA MIC, broth microdilution; format: cell-based, Acinetobacter baumannii; conditions: 37 °C, 18 h
Description: as §1, with “An overnight bacterial cell culture was diluted to approximately 5 × 10^5 CFU/mL in non-cation-adjusted Muller Hinton Broth (MHB).” left out

A. baumannii SSI1104 = assay: BPP-PNA MIC, broth microdilution; format: cell-based, Acinetobacter baumannii; conditions: 37 °C, 18 h
Description: as §1, with “An overnight bacterial cell culture was diluted to approximately 5 × 10^5 CFU/mL in non-cation-adjusted Muller Hinton Broth (MHB).” left out

E. coli K-12 MG1655 = assay: BPP-PNA MIC, broth microdilution; format: cell-based, Escherichia coli; conditions: non-target species; MHB without cation (Oxoid)
Description: as §1

A. baumannii ATCC 19606 = assay: BPP-PNA MIC, broth microdilution; format: cell-based, Acinetobacter baumannii; conditions: 37 °C, 18 h
Description: as §1

CRAB strain AC2 = assay: BPP-PNA MIC, broth microdilution; format: cell-based, Acinetobacter baumannii; conditions: 37 °C, 18 h
Description: as §1

CRAB strain AC44 = assay: BPP-PNA MIC, broth microdilution; format: cell-based, Acinetobacter baumannii; conditions: 37 °C, 18 h
Description: as §1

CRAB strains = assay: BPP-PNA MIC/MBC summarised over the panel of strains; format: cell-based, Acinetobacter baumannii
Description: as §1

[1] = tested on: acpP mRNA in CRAB AC44 strain; assay: Real-time RT-PCR of target mRNA; format: cell-based, Acinetobacter baumannii; conditions: AC44, 1 h treatment, normalised to 16S rRNA, against untreated control
Description: Real time RT-PCR was used to determine the relative expression level of the target gene upon treatment with match BPP-PNA compared to mismatch and untreated controls. The primers for q-PCR were designed to match conserved gene sequences using the AlleleID7 software (Premier Biosoft, San Francisco, CA, USA) (Table S6). Additionally, for more accurate expression of the genes at treatment and untreated conditions, the efficacy of target gene and internal controls primers was calculated by using three consecutive dilutions of the sample cDNA and drawing a standard curve through the slope of the line. […] Statistical analysis was carried out on the gene expression levels normalized to the chosen reference gene (16S rRNA) through −∆Ct analysis. The relative expression of each gene was determined by the 2^−ΔΔCT method. We used the GenEx standard (NormFinder and GeNorm) software (bioMCC, Germany) for analyzing the data.
An overnight culture of bacteria was diluted 1:100 in MHB medium and was grown with shaking (160 rpm) at 37 °C to reach the OD595 = 0.2. Then, the bacterial culture was treated with different concentrations of BPP-PNA for 1 h and the bacterial cells were harvested by centrifugation and the cell pellet used for RNA extraction.
Total RNA was isolated using the GeneJET RNA purification kit (ThermoFisher Scientific, Roskilde, Denmark) following the manufacturer’s protocol. RNA samples were treated with DNase for 30 min at 37 °C (Turbo DNA-free kit Ambion/Applied Biosystems, Carlsbad, CA, USA) and then incubated at 72 °C for 5 min to inactivate the DNase. The genomic DNA (gDNA) contamination was checked by polymerase chain reaction (PCR). RNA concentrations were determined by Nanodrop spectrophotometry at 260 nm and purity was checked by determining the absorption ratios at 260/280 nm. Total RNA (0.5 μg) was reverse-transcribed to yield cDNA as template for real-time quantitative PCR using the Quanti Tect reverse transcription kit (Qiagen, Copenhagen, Denmark). The cDNA was diluted 1:50 and used as a template in the reaction. […]

HepG2 hepatocytes = assay: HepG2 cell toxicity (CellTiter-Glo, ATP); format: cell-based; conditions: 10 µM, ATP level
Description: The cell toxicity of selected BPP-PNAs was determined using HepG2 hepatocytes grown in DMEM (low glucose) medium supplemented with 100 U/mL penicillin, 100 µg/mL streptomycin, 1% glutamax, and 10% fetal bovine serum (FBS) (Thermofisher Scientific, Roskilde, Denmark), at 37 °C with 5% CO2. Then, 7000–10,000 cells were seeded in each well of a 96-well plate. After 48 h, the BPP-PNAs were added (six replicates for each concentration), followed by overnight incubation. Total amount of adenosine triphosphate (ATP) was used as a measure of cell viability, according to the CellTiter-Glo luminescent cell viability assay (Promega, Madison, WI, USA) kit. BPP-PNAs concentrations ranged from 2.5 to 20 µM. Potassium dichromate (100 µM) was used as a positive control.

[2] = Sigma MHB medium without cation
[3] = Sigma MHB medium without cation, ~5 × 10^5 CFU/mL, OD595 < 0.1
[4] = Oxoid MHB medium, cation adjusted

Substance	MIC, P. aeruginosa (PAO1) (P. aeruginosa (PAO1)) [µM]	MIC, AC46 (CRAB strain AC46; [2]) [µM]	MIC, SSI 1104 (A. baumannii SSI1104; MHB without cation (Oxoid)) [µM]	MIC, SSI 1104 (A. baumannii SSI1104; [2]) [µM]	MIC, E. coli K-12 MG1655 (E. coli K-12 MG1655) [µM]	MIC, ATCC 19606 (A. baumannii ATCC 19606; MHB without cation (Oxoid)) [µM]	MIC, ATCC 19606 (A. baumannii ATCC 19606; [3]) [µM]	MIC, AC2 (CRAB strain AC2; [2]) [µM]	MIC, AC44 (CRAB strain AC44; [2]) [µM]	MIC (complete growth inhibition) over the CRAB strains tested (CRAB strains; several A. baumannii strains) [µM]	MIC, AC46 (CRAB strain AC46; [4]) [µM]	MIC, SSI 1104 (A. baumannii SSI1104; [4]) [µM]	reduction in the level of the acpP mRNA [1] [fold]	MIC, ATCC 19606 (A. baumannii ATCC 19606; [4]) [µM]	MIC, AC2 (CRAB strain AC2; [4]) [µM]	MIC, AC44 (CRAB strain AC44; [4]) [µM]	toxicity in HepG2 (HepG2 hepatocytes)	MIC, AC44 (CRAB strain AC44; MHB without cation (Oxoid)) [µM]	MIC (CRAB strains; text on Table 2, (R-Ahx-R)4 BPP) [µM]
H-(KFF)3K-eg1-ATATCGCTCAC-NH2 (all peptide nucleic acid (PNA), 5' {(KFF)3K-eg1}, 3' {NH2}) [PNA 5652, anti-acpP peptide-PNA conjugate, match, +40 to +50]	16	4	4	4	16	4	4	4	4	4	–	–	–	–	–	–	–	–	–
H-(KFF)3K-eg1-TGACTTGTCAC-NH2 (all peptide nucleic acid (PNA), 5' {(KFF)3K-eg1}, 3' {NH2}) [PNA 5640, anti-acpP mismatch control of 5639]	–	4	–	4	–	–	4	4	4	–	4	4	4	4	4	4	–	–	–
H-(R-Ahx-R)4-Ahx-GAGGCCATGAC-NH2 (N-terminal (R-Ahx-R)4-Ahx peptide, C-terminal amide, backbone not given here, further chemistry not given here) [PNA 5613, anti-ftsZ (R-Ahx-R)4-Ahx-PNA, match]	–	–	–	–	–	>16	–	–	–	–	–	–	–	–	–	–	very significant toxicity	>16	> 16
